# From patent US10155802B2, “Locally-active anticoagulants and anti-inflammatory agents” (priority 2011, dated 2018)
# Test system: FeCl3-induced arterial thrombosis (carotid artery)
# Assay: FeCl3-induced arterial model of thrombosis in rats (time to occlusion)
# Type: in vivo
# Conditions: rat, single bolus 0.2 mg/kg plus maintenance infusion 0.00433 mg/kg/min
# Description: Male Sprague-Dawley rats (250-310 g; Charles River Laboratories, St-Constant, QC, Canada) were acclimated for at least 3 days prior to the start of the study. Animals were housed in microisolator cages and were kept on a 12-hr light/dark cycle with constant temperature and humidity. Food and water were provided ad libitum. Various anti-thrombotic agents and peptides of this invention were dissolved in saline (0.9% sodium chloride) prior to use.
# The FeCl3-induced arterial model of thrombosis in rats was also generated as described by Wang and Xu (Wang 2005) with some modifications (Couture 2011). Briefly, rats were anesthetized with a 2.5% isoflurane/oxygen mixture and placed on a heat source (35-37° C.). An incision was made over the right carotid artery, and a segment of the artery was exposed via blunt dissection. A Doppler flow probe (Model MA1PRB, Transonic System Inc., Ithaca, N.Y., USA) connected to a perivascular flow module (TS420, Transonic System Inc., Ithaca, N.Y., USA) was then attached to the carotid artery to monitor blood flow. Data were collected and analyzed using the MP100 Biopac™ Systems (Biopac Systems, Santa Barbara, Calif., USA), and the AcgKnowledge™ software (Biopac Systems, Santa Barbara, Calif., USA), respectively. Baseline blood flow was recorded for a minimum of 15 minutes until readings stabilized. Aquasonic 100 gel (Parker Laboratories, Inc., Fairfield, N.J., USA) was added to help conductivity and any fluid accumulating at the site of surgery was removed during data sampling without touching the probe. […] One minute after drug administration, a piece of filter paper (Gel Blot Paper, GB003, Whatman, Piscataway, N.J., USA; 7 mm diameter) saturated with 20% FeCl3 (EMD Chemicals Inc., Gibbstown, N.J., USA) was placed on the exposed surface of the carotid artery and incubated for 3.5 minutes. During the application of FeCl3, the neck region was covered with aluminum foil. At the end of the incubation period, the filter paper was removed and the exposed carotid was covered with a saline-soaked gauze. Time to occlusion was defined as the time from the application of FeCl3 until blood flow decreased to zero. […] Preparing and processing each animal took approximately 1 hr and 7 animals were treated each day. Control animals were always included when the other treatments were being administered. For this reason, the number of animals in the control group is higher than that of the treated-groups.
# Statistical analysis was conducted using GraphPad™ Prism (GraphPad Software Inc., San Diego Calif., USA). Data were analyzed using one-way ANOVA with post-hoc Bonferroni correction for multiple comparisons. The relationship between thrombus weight and thrombus volume was determined by linear regression. […]
smiles,measurement,value
CC[C@H](C)[C@H](N)C(=O)N[C@@H](CCCNC(=N)N)C(=O)N[C@@H](Cc1ccccc1)C(=O)N[C@H](C(=O)N[C@@H](CC(=O)O)C(=O)NCC(=O)N[C@@H](CCC(=O)O)C(=O)N[C@@H](Cc1c[nH]c2ccccc12)C(=O)N[C@H](C(=O)N[C@@H](Cc1c[nH]c2ccccc12)C(=O)N[C@@H](CC(=O)O)C(=O)N[C@@H](CC(=O)O)C(=O)N[C@@H](C)C(=O)N[C@H](C(=O)N[C@@H](CCCCN)C(=O)N[C@H](C(=O)N[C@@H](Cc1c[nH]c2ccccc12)C(=O)N[C@H](C(=O)N[C@@H](Cc1c[nH]c2ccccc12)C(=O)N[C@H](C(=O)N[C@@H](CCC(=O)O)C(=O)NCC(=O)N[C@@H](CC(=O)O)C(=O)N[C@@H](Cc1ccccc1)C(=O)N[C@@H](CCC(=O)O)C(=O)N[C@@H](CCC(=O)O)C(=O)N[C@H](C(=O)N1CCC[C@H]1C(=O)N[C@@H](CCC(=O)O)C(=O)N[C@@H](CCC(=O)O)C(=O)N[C@@H](Cc1ccc(O)cc1)C(=O)N[C@@H](CC(C)C)C(=O)N[C@@H](CCC(N)=O)C(=O)O)[C@@H](C)CC)[C@@H](C)O)[C@@H](C)O)[C@@H](C)O)[C@@H](C)O)[C@@H](C)O)[C@@H](C)O [MH2-wZIP4],anti-thrombotic efficacy in arterial model,increases the efficacy
